Test results reported in DBAASP.
≈ marks a conversion by molar mass, not a printed value. Where “and” joins values, the source holds several entries; their conditions need not be identical. Equal values may be shown once. Blank lines part the entries; values can stand above or below the compound they belong to.

Experiments:
Assay in all cases: ≥ marks a high value that may be exact or a test limit, other limits are often not marked, values filed in µg/mL are converted to µM
Escherichia coli BL21 = system: Escherichia coli BL21
[1] = system: Pseudomonas aeruginosa PAO1
[2] = system: Streptococcus pyogenes M1T1 5448
[3] = system: Batrachochytrium dendrobatidis
[4] = system: Escherichia coli ATCC 25726
[5] = system: Staphylococcus aureus ATCC 25923
[6] = system: Staphylococcus aureus NCTC 8325
[7] = system: Pseudomonas aeruginosa H1001
[8] = system: Escherichia coli ATCC 25922
[9] = system: Acinetobacter baumannii ATCC 17978
[10] = system: Escherichia coli ATCC 8739
[11] = system: Escherichia coli DSM 1103
[12] = system: Pseudomonas aeruginosa DSM 1117
[13] = system: Staphylococcus aureus DSM 1104
[14] = system: Staphylococcus aureus HNCMO 112011
[15] = system: Staphylococcus epidermidis DSM 1798
Escherichia coli MG1655 = system: Escherichia coli MG1655
[16] = system: Klebsiella pneumoniae ATCC 700603
[17] = system: Pseudomonas aeruginosa ATCC 10145

SMILES: CC[C@H](C)[C@H](NC(=O)[C@H](CCCCN)NC(=O)[C@H](C)NC(=O)[C@H](CCCN=C(N)N)NC(=O)[C@H](CCCCN)NC(=O)CNC(=O)[C@H](CCCCN)NC(=O)[C@H](CCC(=O)O)NC(=O)[C@H](CCC(N)=O)NC(=O)[C@@H](NC(=O)[C@@H](NC(=O)[C@H](CCCCN)NC(=O)[C@H](CCCCN)NC(=O)[C@H](CC(C)C)NC(=O)[C@H](Cc1ccccc1)NC(=O)[C@H](CCC(N)=O)NC(=O)[C@H](CCCN=C(N)N)NC(=O)[C@@H](NC(=O)[C@@H](NC(=O)[C@H](CCC(=O)O)NC(=O)[C@H](CCCCN)NC(=O)CNC(=O)[C@H](C)N)[C@@H](C)O)[C@@H](C)CC)[C@@H](C)O)[C@@H](C)CC)C(=O)N[C@@H](Cc1c[nH]c2ccccc12)C(=O)N[C@@H](Cc1c[nH]c2ccccc12)C(=O)O [AGKETIRQFLKKTIQEKGKRAKIWW]
- MIC (Escherichia coli BL21): 2 µM (≈ 6.09 µg/mL)
- MIC [1]: 32 µM (≈ 97.4 µg/mL)
- MIC [2]: 0.125 µM (≈ 0.381 µg/mL)

SMILES: CC[C@H](C)[C@H](NC(=O)[C@@H]1CCCN1C(=O)[C@H](CC(C)C)NC(=O)[C@@H](N)Cc1ccccc1)C(=O)N[C@H](C(=O)NCC(=O)N[C@@H](CCCCN)C(=O)N[C@@H](CC(C)C)C(=O)N[C@@H](CC(C)C)C(=O)N[C@@H](CO)C(=O)NCC(=O)N[C@@H](CC(C)C)C(=O)N[C@@H](CC(C)C)C(N)=O)C(C)C [FLPIVGKLLSGLL]
- MIC [3]: ≥ 49.6 µM
- MIC [4]: ≥ 128 µM
- MIC [5]: 8 µM (≈ 11 µg/mL)
- MIC [6]: ≥ 110 µM

SMILES: CC(C)C[C@H](NC(=O)[C@H](CCCCN)NC(=O)[C@H](CCC(N)=O)NC(=O)[C@H](CC(N)=O)NC(=O)[C@H](CC(C)C)NC(=O)[C@H](CC(=O)O)NC(=O)[C@H](CCC(=O)O)NC(=O)[C@@H]1CCCN1C(=O)[C@@H](NC(=O)[C@H](C)NC(=O)CN)[C@@H](C)O)C(=O)N[C@@H](CO)C(N)=O [GATPEDLNQKLS]
- MIC [7]: ≥ 196 µM

SMILES: CC[C@H](C)[C@H](NC(=O)[C@H](CCCCN)NC(=O)[C@H](CS)NC(=O)[C@H](C)NC(=O)[C@@H](NC(=O)[C@H](CC(C)C)NC(=O)[C@H](CC(N)=O)NC(=O)[C@@H](NC(=O)CNC(=O)[C@H](CC(C)C)NC(=O)[C@H](CCCNC(=N)N)NC(=O)[C@H](C)NC(=O)[C@H](CC(C)C)NC(=O)[C@H](CC(=O)O)NC(=O)[C@H](CCCCN)NC(=O)CNC(=O)[C@H](CC(C)C)NC(=O)CNC(=O)[C@H](CCCCN)NC(=O)[C@H](CO)NC(=O)[C@H](C)NC(=O)[C@H](Cc1ccccc1)NC(=O)[C@H](CCCCN)NC(=O)[C@H](C)NC(=O)[C@@H](NC(=O)CNC(=O)[C@H](CCCNC(=N)N)NC(=O)[C@H](Cc1ccccc1)NC(=O)[C@@H](NC(=O)[C@H](CO)NC(=O)[C@H](CO)NC(=O)[C@H](Cc1ccccc1)NC(=O)CN)[C@@H](C)CC)C(C)C)C(C)C)C(C)C)C(=O)N[C@@H](CO)C(=O)N[C@@H](CCCCN)C(=O)N[C@@H](CCC(N)=O)C(=O)N[C@@H](CS)C(=O)O [GFSSIFRGVAKFASKGLGKDLARLGVNLVACKISKQC]
- MIC [3]: ≥ 50 µM and 25 µM
- MIC [8]: 10 µM (≈ 38.7 µg/mL)

SMILES: CC[C@H](C)[C@H](NC(=O)[C@H](CCCCN)NC(=O)[C@H](CCCCN)NC(=O)[C@H](C)NC(=O)[C@H](CC(C)C)NC(=O)[C@H](C)NC(=O)[C@H](C)NC(=O)[C@H](CC(C)C)NC(=O)[C@H](C)NC(=O)[C@H](CCCCN)NC(=O)[C@H](CC(C)C)NC(=O)[C@H](CC(N)=O)NC(=O)[C@@H](NC(=O)[C@H](CCCCN)NC(=O)CNC(=O)[C@H](CC(C)C)NC(=O)[C@H](CC(C)C)NC(=O)[C@H](Cc1ccc(O)cc1)NC(=O)CNC(=O)[C@H](C)NC(=O)[C@H](CO)NC(=O)[C@H](CC(N)=O)NC(=O)[C@H](CC(C)C)NC(=O)[C@@H](NC(=O)[C@H](Cc1c[nH]c2ccccc12)NC(=O)CN)[C@@H](C)O)[C@@H](C)CC)C(=O)N[C@@H](CC(C)C)C(=O)O [GWTLNSAGYLLGKINLKALAALAKKIL]
- MIC [9]: 3.1 µM (≈ 8.81 µg/mL)
- MIC [10]: 3.1 µM (≈ 8.81 µg/mL)
- MIC [11]: ≥ 43 µM
- MIC [12]: ≥ 86 µM
- MIC [13]: ≥ 43 µM
- MIC [14]: 3.1 µM (≈ 8.81 µg/mL)
- MIC [15]: 5 µM (≈ 14.2 µg/mL)

SMILES: CC(C)C[C@H](NC(=O)[C@H](Cc1c[nH]c2ccccc12)NC(=O)[C@H](Cc1cnc[nH]1)NC(=O)[C@H](CCCCN)NC(=O)[C@H](CC(C)C)NC(=O)[C@H](C)NC(=O)[C@H](CC(C)C)NC(=O)[C@H](CCCCN)NC(=O)CNC(=O)[C@@H](NC(=O)[C@@H](NC(=O)[C@H](CCCCN)NC(=O)[C@@H](NC(=O)[C@H](CCC(=O)O)NC(=O)[C@H](C)NC(=O)[C@H](CCCCN)NC(=O)[C@H](CCCCN)NC(=O)[C@H](CC(C)C)NC(=O)[C@H](CC(C)C)NC(=O)[C@@H](NC(=O)[C@H](CCCN=C(N)N)NC(=O)[C@H](Cc1ccc(O)cc1)NC(=O)CN)[C@@H](C)O)C(C)C)[C@@H](C)O)C(C)C)C(=O)O [GYRTLLKKAEVKTVGKLALKHWL]
- MIC (Escherichia coli MG1655): 15 µM (≈ 39.8 µg/mL)
- MIC [16]: > 15 µM
- MIC [17]: 15 µM (≈ 39.8 µg/mL)
- MIC [5]: 15 µM (≈ 39.8 µg/mL)

SMILES: CC[C@H](C)[C@H](NC(=O)[C@H](CCCCN)NC(=O)[C@H](CCCCN)NC(=O)[C@H](C)NC(=O)[C@H](CC(C)C)NC(=O)[C@H](C)NC(=O)[C@H](C)NC(=O)[C@H](CC(C)C)NC(=O)[C@H](C)NC(=O)[C@@H](N)CCCCN)C(=O)N[C@@H](CC(C)C)C(=O)N[C@@H](CCC(N)=O)C(=O)N[C@@H](CCC(N)=O)C(=O)N[C@@H](CS)C(=O)N[C@@H](CCCN=C(N)N)C(=O)N[C@@H](CCCN=C(N)N)C(=O)N1CCC[C@H]1C(=O)N[C@@H](CC(C)C)C(=O)N[C@@H](Cc1ccc(O)cc1)C(=O)N[C@@H](CS)C(=O)N[C@@H](CCCN=C(N)N)C(=O)N[C@@H](CCCN=C(N)N)C(=O)N[C@@H](CCCN=C(N)N)C(=O)O [KALAALAKKILQQCRRPLYCRRR]
- MIC [9]: 3.1 µM (≈ 8.54 µg/mL)
- MIC [10]: 6.3 µM (≈ 17.4 µg/mL)
- MIC [14]: 3.1 µM (≈ 8.54 µg/mL)

Results, then the compound that gave them:

- MIC [17]: ≥ 136 µM
SMILES: C[C@H](NC(=O)[C@H](C)NC(=O)[C@H](CCCCN)NC(=O)[C@H](CCCCN)NC(=O)[C@H](C)NC(=O)[C@H](Cc1ccccc1)NC(=O)[C@H](CCCCN)NC(=O)[C@H](CCCCN)NC(=O)[C@H](C)NC(=O)[C@H](Cc1ccccc1)NC(=O)[C@H](CCCCN)NC(=O)[C@H](CCCCN)NC(=O)[C@H](C)NC(=O)[C@H](Cc1ccccc1)NC(=O)[C@@H](N)CCCCN)C(=O)N[C@@H](CCCCN)C(=O)O [KFAKKFAKKFAKKAAK]

- MIC [9]: 3.1 µM (≈ 10.3 µg/mL)
- MIC [10]: 3.1 µM (≈ 10.3 µg/mL)
- MIC [14]: 3.1 µM (≈ 10.3 µg/mL)
SMILES: CSCC[C@H](NC(=O)[C@H](CCCCN)NC(=O)[C@H](Cc1ccccc1)NC(=O)[C@H](CC(N)=O)NC(=O)[C@H](CC(C)C)NC(=O)[C@@H]1CCCN1C(=O)[C@@H](N)CCCN=C(N)N)C(=O)N[C@@H](CC(C)C)C(=O)N[C@@H](CCCN=C(N)N)C(=O)N[C@@H](Cc1ccccc1)C(=O)N[C@@H](Cc1c[nH]c2ccccc12)C(=O)NCC(=O)N[C@@H](CCC(N)=O)C(=O)N[C@@H](CCC(N)=O)C(=O)N[C@@H](CCC(N)=O)C(=O)N[C@@H](CS)C(=O)N[C@@H](CCCN=C(N)N)C(=O)N[C@@H](CCCN=C(N)N)C(=O)N1CCC[C@H]1C(=O)N[C@@H](CC(C)C)C(=O)N[C@@H](Cc1ccc(O)cc1)C(=O)N[C@@H](CS)C(=O)N[C@@H](CCCN=C(N)N)C(=O)N[C@@H](CCCN=C(N)N)C(=O)N[C@@H](CCCN=C(N)N)C(=O)O [RPLNFKMLRFWGQQQCRRPLYCRRR]

- MIC [7]: ≥ 174 µM
SMILES: CC[C@H](C)[C@H](NC(=O)[C@H](C)NC(=O)[C@@H](NC(=O)[C@H](CCCCN)NC(=O)[C@H](CCCCN)NC(=O)[C@H](Cc1cnc[nH]1)NC(=O)[C@@H](NC(=O)[C@@H](N)CCCN=C(N)N)C(C)C)[C@@H](C)CC)C(=O)N[C@@H](CO)C(=O)N[C@H](C(=O)O)C(C)C [RVHKKIAISV]

- MIC [7]: 0.11 µM (≈ 0.27 µg/mL)
SMILES: CC[C@H](C)[C@H](NC(=O)[C@H](CCCN=C(N)N)NC(=O)[C@H](CCCN=C(N)N)NC(=O)[C@@H]1CCCN1C(=O)[C@H](CC(C)C)NC(=O)[C@H](CCCN=C(N)N)NC(=O)[C@@H]1CCCN1C(=O)[C@H](CCCN=C(N)N)NC(=O)[C@@H]1CCCN1C(=O)[C@H](CC(C)C)NC(=O)[C@H](Cc1ccc(O)cc1)NC(=O)[C@@H]1CCCN1C(=O)[C@@H]1CCCN1C(=O)[C@H](CCCCN)NC(=O)[C@H](CC(=O)O)NC(=O)[C@@H](N)C(C)C)C(=O)N[C@@H](Cc1ccc(O)cc1)C(=O)N[C@@H](CC(N)=O)C(=O)N[C@@H](CCCN=C(N)N)C(=O)NCC(=O)O [VDKPPYLPRPRLPRRIYNRG]
